Assay results taken from ChEMBL document CHEMBL1132738, “Carbohydrate-modulated DNA photocleavage: design, synthesis, and evaluation of novel glycosyl anthraquinones” (Bioorg Med Chem Lett, 2000).

Columns and labels:
HeLa [1] = assay: The compound was evaluated for its inhibitory activity against HeLa S3 cells in the absence of photoirradiation.; type: functional, cell-based; settings: Homo sapiens, light or radiation study
HeLa [2] = assay: The compound was evaluated for its inhibitory activity against HeLa S3 cells in the presence of photoirradiation.; type: functional, cell-based; settings: Homo sapiens, light or radiation study

IC50 (HeLa [1]) [µM] | IC50 (HeLa [2]) [µM] | SMILES
8.8 | 1.9 | C[C@@H]1O[C@@H](OCc2ccc3c(c2O)C(=O)c2ccccc2C3=O)C[C@@H](N(C)C)[C@@H]1O
13 | 4.3 | C[C@@H]1O[C@H](OCc2ccc3c(c2O)C(=O)c2ccccc2C3=O)C[C@@H](N(C)C)[C@@H]1O
9 | 4.8 | CC1OC(c2ccc3c(c2O)C(=O)c2ccccc2C3=O)CC(N(C)C)C1O (stereo unspecified)
